From patent US4350700A, “Pharmaceutical composition containing 1,3,5-substituted biuret compound” (Taiho Pharmaceutical Company, Limited, priority 1979, dated 1982)
Like-named read-outs stand apart in the source and are kept apart here.

Key:
[1] = test system: carrageenin-induced inflammation of the hindpaw of the rat; assay: Anti-inflammatory activity, acute carrageenin-induced inflammatory test; type: in vivo, rats (Wistar strain, male); conditions: Rattus norvegicus, read-out: Anti-inflammatory activity, inflammation inhibitory ratio; for inhibition in vivo at 200 mg/kg: 200 mg/kg oral
Procedure: (§1) Next, several tests for determining the pharmacological properties, in that acute toxicity, anti-pyretic activity, analgesic activity and anti-inflammatory activity of the present 1,3,5-substituted biuret compounds of the formula (1) were conducted and the test results are shown in Table (2). In the tests, each compounds to be tested was used as a suspension in 0.25% carboxymethylcellulose solution. Methods for testing are explained as follows:
4. Anti-inflammatory Activity
According to the method of acute carrageenin-induced inflammatory test [Folia Pharmacologia Japonica, Vol. 56, pp. 575 (1960)], the Wistar strain of male rats (body weight, 150-180 g) were used as test animals. The rats were fasted overnight, 100 mg/kg body weight of the test compound was administered orally, then 1 hour after the administration, 0.1 ml of 1% carrageenin solution, as the inflammation inducing agent, was injected subcutaneously to the hindpaw of the rat and the volume of the hindpaw was measured at time sequences. Anti-inflammatory activity of the test compound was calculated as inflammation inhibitory ratio (%) at 3 hours after the injection of inflammation inducing agent.

[2] = Acute toxicity (oral, general symptom and death observed for 7 days); type: in vivo, mice (ddy strain, male); conditions: mouse, in vivo; oral, mice, 7 days observation (Δ values); read-out: Acute toxicity, 50% lethal dose LD50
Procedure: as §1
(§2) The ddy strain of male mice (body weight, 20-25 g) were used as test animals. The mice were fasted overnight and the compound to be tested was administered orally. […] The lethal dose (mg/kg, body weight) of the test compound was determined in connection with the death number of mice/the number of mice tested. In Table 2, the values indicated with Δ marks are 50% lethal dose, LD50 (mg/kg, body weight).

[3] = test system: acetic acid-induced stretching symptom of mouse; assay: Analgesic activity, acetic acid-induced stretching method; type: in vivo, mice (ddy strain, male)
Procedure: as §1
(1) Acetic acid-induced stretching method
According to the method reported by Koster et.al., [Fed. Proc., Vol. 18, pp. 412 (1959)], the ddy strain of male mice (body weight, 20-25 g) were used as test animals. The mice were fasted overnight, 100 mg/kg body weight of the test compound was administered orally, then 1 hour after the administration, 0.2 ml of 0.7% acetic acid solution was injected intraperitoneally. The acetic acid-induced stretching symptom of mouse was observed. Analgesic activity of the test compound was calculated as the inhibitory ratio (%). In Table 2, the values in parentheses show the data obtained from the test by using the dosage other than 100 mg/kg body weight. Further, the values indicated with Δ marks show 50% effective dose, ED50 (mg/kg body weight).

[4] = test system: pain reaction of the mouse caused by a clamp; assay: Analgesic activity, Haffner method; type: in vivo, mice (ddy strain, male); conditions: for Analgesic activity, Haffner method, inhibitory ratio: mice; for ED50: Mus musculus, oral, mice (Δ values; range in parentheses), read-out: Analgesic activity, Haffner method, 50% effective dose ED50
Procedure: as §1
According to the modified method reported by Fujimura et al., [Bulletin of the Institute for Chemical Research, Kyoto University, No. 25, pp. 36 (1951)], the ddy strain of male mice (body weight, 20-25 g) were used as test animals. The mice were fasted overnight, 100 mg/kg body weight of the test compound was administered orally, then 45 minutes after the administration, the threshhold amount (1.5-2.5 mg/kg body weight) of morphine hydrochloride was injected subcutaneously. Then 1-hour pain reaction of the mouse caused by a clamp was observed. Analgesic activity of the test compound was calculated as the inhibitory ratio (%). In Table 2, the values in parentheses show the data obtained from the test by using the dosage other than 100 mg/kg body weight. Further, the values indicated with Δ marks show 50% effective dose, ED50 (mg/kg body weight).

[5] = test system: 10% dry-yeast suspension-induced fever of rats; assay: Anti-pyretic activity (dry-yeast induced fever, febril index); type: in vivo, rats (Wistar strain, male); conditions: oral, febril index up to 4 hours after administration, dose not stated
Procedure: as §1
According to the method reported by Tanabe [Folia Pharmacologia Japonica, Vol. 73, pp. 803 (1977)], the Wistar strain of male rats (150-180 g body weight) were used as test animals. The rats were fasted overnight, and 1 ml/100 g (body weight) of 10% dry-yeast suspension were subcutaneously injected on the back of the rats. Five hours afte the injection, the test compound was administered orally, then the body temperature of the rat was measured time sequences. Anti-pyretic activity of the test compound was determined as the FI (febril index) by integrating pyrogenetic curve up to 4 hours after the administration of the test compound with time, and indicated as inhibitory ratio (%) shown by the following formula, [formula]

[6] = test system: ddy strain of male mice; assay: Acute toxicity (oral, general symptom and death observed for 7 days); type: in vivo; conditions: 7 days
Procedure: as §1, §2

[7] = 100 mg/kg oral, rats, 3 hours after carrageenin
[8] = po, read-out: Analgesic activity, acetic acid-induced stretching method, inhibitory ratio
[9] = 100 mg/kg oral, mice, read-out: Analgesic activity, acetic acid-induced stretching method, inhibitory ratio
[10] = rats, 3 hours after carrageenin

CNC(=O)N(C)C(=O)Nc1ccc(Cl)cc1 [compound 6]
inhibition in vivo at 100 mg/kg ([1]; po, 3 h): 43%
LD50 at 168 h [2]: 1240 mg/kg
ED50 ([3]; oral, mice (Δ values; range in parentheses), read-out: Analgesic activity, acetic acid-induced stretching method, 50% effective dose ED50): 40 mg/kg
Analgesic activity, Haffner method, inhibitory ratio ([4]; 100 mg/kg oral): 50%
Anti-pyretic activity, inhibitory ratio [5]: 72%

CNC(=O)N(C)C(=O)Nc1ccccn1 [Compound No. 14, 1,3-dimethyl-5-(2-pyridyl)biuret]
inhibition in vivo at 100 mg/kg [1, 7]: 54%
LD50 at 168 h [2]: 656 mg/kg
inhibition in vivo at 100 mg/kg [3, 8]: 62.5%
ED50 [4]: 145 mg/kg

CCNC(=O)N(C)C(=O)Nc1cc(OC)c(OC)c(OC)c1 [Compound No. 37, 1-Ethyl-3-methyl-5-(3,4,5-trimethoxyphenyl)biuret]
LD50 at 168 h [2]: 749 mg/kg
inhibition in vivo at 100 mg/kg [3, 8]: 75%
ED50 [4]: 46 mg/kg
Anti-pyretic activity, inhibitory ratio [5]: 97%

CCNC(=O)N(C)C(=O)Nc1ccc(OC)c(OC)c1 [compound 36, 1-Ethyl-3-methyl-5-(3,4-dimethoxyphenyl)biuret]
inhibition in vivo at 100 mg/kg ([1]; po, 3 h): 23%
LD50 at 168 h [2]: 833 mg/kg
inhibition in vivo at 100 mg/kg [3, 8]: 50%
Analgesic activity, Haffner method, inhibitory ratio ([4]; 100 mg/kg oral): 62.5%
Anti-pyretic activity, inhibitory ratio [5]: 43%

CCCNC(=O)N(C)C(=O)Nc1ccccc1 [Compound No. 41, 1-n-Propyl-3-methyl-5-phenylbiuret]
inhibition in vivo at 100 mg/kg [1, 7]: 67%
Acute toxicity, death number of mice/number of mice tested ([6]; 2000 mg/kg oral): 0/4
inhibition in vivo at 100 mg/kg [3, 8]: 62.5%
Analgesic activity, Haffner method, inhibitory ratio ([4]; 100 mg/kg oral): 37.5%
Anti-pyretic activity, inhibitory ratio [5]: 65%

CCC(C)NC(=O)N(C)C(=O)Nc1ccccc1 (stereo not drawn) [compound 50, 1-(1-Methylpropyl)-3-methyl-5-phenylbiuret]
inhibition in vivo at 100 mg/kg ([1]; po, 3 h): 47%
Acute toxicity, death number of mice/number of mice tested ([6]; 2000 mg/kg oral): 0/4
inhibition in vivo at 100 mg/kg [3, 8]: 62.5%
Analgesic activity, Haffner method, inhibitory ratio ([4]; 100 mg/kg oral): 25%
Anti-pyretic activity, inhibitory ratio [5]: 27%

C=CCNC(=O)NC(=O)Nc1ccccc1 [compound 44]
inhibition in vivo at 100 mg/kg ([1]; po, 3 h): 33%
LD50 at 168 h [2]: 1400 mg/kg
inhibition in vivo at 100 mg/kg [3, 8]: 62.5%
Analgesic activity, Haffner method, inhibitory ratio ([4]; 100 mg/kg oral): 50%

CNC(=O)N(C)C(=O)Nc1ccncc1 [compound 16]
inhibition in vivo at 100 mg/kg [1, 7]: 34%
LD50 at 168 h [2]: 1100 mg/kg
inhibition in vivo at 100 mg/kg [3, 8]: 62.5%
Analgesic activity, Haffner method, inhibitory ratio ([4]; 100 mg/kg oral): 25%

CNC(=O)N(C)C(=O)Nc1nccs1 [compound 20]
inhibition in vivo at 100 mg/kg [1, 7]: 46%
Acute toxicity, death number of mice/number of mice tested ([6]; 1000 mg/kg oral): 3/4
inhibition in vivo at 100 mg/kg [3, 9]: 25%
Analgesic activity, Haffner method, inhibitory ratio ([4]; 100 mg/kg oral): 25%
Anti-pyretic activity, inhibitory ratio [5]: 112%

CC(C)CNC(=O)N(C)C(=O)Nc1ccccc1 [Compound No. 49, 1-Isobutyl-3-methyl-5-phenylbiuret]
inhibition in vivo at 100 mg/kg [1, 7]: 57%
Acute toxicity, death number of mice/number of mice tested ([6]; 2000 mg/kg oral): 0/4
inhibition in vivo at 40 mg/kg [3, 8]: 50%
ED50 [4]: 50 mg/kg
Anti-pyretic activity, inhibitory ratio [5]: 55%

C=CCNC(=O)N(C)C(=O)Nc1ccccc1 [Compound No. 45]
inhibition in vivo at 100 mg/kg ([1]; po, 3 h): 59%
Acute toxicity, death number of mice/number of mice tested ([6]; 1000 mg/kg oral): 2/4
Acute toxicity, death number of mice/number of mice tested ([6]; 2000 mg/kg oral): 4/4
inhibition in vivo at 100 mg/kg [3, 8]: 50%
Analgesic activity, Haffner method, inhibitory ratio ([4]; 100 mg/kg oral): 12.5%
Anti-pyretic activity, inhibitory ratio [5]: 125%

CCNC(=O)N(C)C(=O)Nc1ccc(OC)cc1 [compound 35, 1-Ethyl-3-methyl-5-(4-methoxyphenyl)biuret]
inhibition in vivo at 100 mg/kg [1, 7]: 19%
Acute toxicity, death number of mice/number of mice tested ([6]; 1000 mg/kg oral): 0/4
Acute toxicity, death number of mice/number of mice tested ([6]; 2000 mg/kg oral): 4/4
inhibition in vivo at 100 mg/kg [3, 9]: 87.5%
Analgesic activity, Haffner method, inhibitory ratio ([4]; 100 mg/kg oral): 62.5%
Anti-pyretic activity, inhibitory ratio [5]: 112%

CNC(=O)N(C)C(=O)Nc1ncccn1 [compound 19, 1,3-Dimethyl-5-(2-pyrimidinyl)biuret]
LD50 at 168 h [2]: 1400 mg/kg
inhibition in vivo at 100 mg/kg [3, 8]: 50%
Analgesic activity, Haffner method, inhibitory ratio ([4]; 100 mg/kg oral): 37.5%
Anti-pyretic activity, inhibitory ratio [5]: 6%

CNC(=O)N(C)C(=O)Nc1ccccc1F [Compound No. 4]
inhibition in vivo at 100 mg/kg [1, 7]: 41%
Acute toxicity, death number of mice/number of mice tested ([6]; 2000 mg/kg oral): 0/4
inhibition in vivo at 100 mg/kg [3, 8]: 37.5%
Analgesic activity, Haffner method, inhibitory ratio ([4]; 100 mg/kg oral): 25%
Anti-pyretic activity, inhibitory ratio [5]: 79%

CCCCNC(=O)N(C)C(=O)Nc1ccccc1 [Compound No. 47]
inhibition in vivo at 100 mg/kg [1, 7]: 27%
Acute toxicity, death number of mice/number of mice tested ([6]; 2000 mg/kg oral): 0/4
inhibition in vivo at 100 mg/kg [3, 8]: 75%
Analgesic activity, Haffner method, inhibitory ratio ([4]; 100 mg/kg oral): 62.5%
Anti-pyretic activity, inhibitory ratio [5]: 19%

CNC(=O)N(C)C(=O)Nc1ccccc1Cl [Compound No. 5, 1,3-Dimethyl-5-(2-chlorophenyl)biuret]
inhibition in vivo at 200 mg/kg [1, 10]: 53%
Acute toxicity, death number of mice/number of mice tested ([6]; 2000 mg/kg oral): 0/4
inhibition in vivo at 200 mg/kg [3, 8]: 37.5%
Analgesic activity, Haffner method, inhibitory ratio ([4]; 200 mg/kg oral): 37.5%
Anti-pyretic activity, inhibitory ratio [5]: 28%

CCNC(=O)NC(=O)Nc1ccc(OC)cc1 [compound 28, 1-Ethyl-5-(4-methoxyphenyl)biuret]
inhibition in vivo at 200 mg/kg [1, 10]: 75%
LD50 at 168 h [2]: 1600 mg/kg
inhibition in vivo at 200 mg/kg [3, 8]: 37.5%
Analgesic activity, Haffner method, inhibitory ratio ([4]; 200 mg/kg oral): 37.5%

CCNC(=O)N(C)C(=O)Nc1ccc(N(C)C)cc1 [compound 33, 1-Ethyl-3-methyl-5-(4-dimethylaminophenyl)biuret]
inhibition in vivo at 100 mg/kg ([1]; po, 3 h): 30%
Acute toxicity, death number of mice/number of mice tested ([6]; 1000 mg/kg oral): 0/4
Acute toxicity, death number of mice/number of mice tested ([6]; 2000 mg/kg oral): 4/4
inhibition in vivo at 100 mg/kg [3, 8]: 62.5%
Analgesic activity, Haffner method, inhibitory ratio ([4]; 100 mg/kg oral): 25%
Anti-pyretic activity, inhibitory ratio [5]: 87%
